For data set [1], the system named is RKO. The data set is described as follows: Cytotoxicity against human RKO cells at 5 uM incubated for 72 hrs by MTS assay. The format is functional. Background: Formazan colour is commonly taken as a measure of viable cells.
Data set [2] relates to HT-29. Kind of data set: Cytotoxicity against human HT-29 cells at 5 uM incubated for 72 hrs by MTS assay. Type of data set: functional.
Data set [3] has as its system HCT-116. Kind of data set: Cytotoxicity against human HCT-116 cells at 5 uM incubated for 72 hrs by MTS assay. The format is functional.
For data set [4], the system named is HT-29. The data set is described as follows: Cytotoxicity against human HT-29 cells incubated for 72 hrs by MTS assay. Type of data set: functional, cell-based. The conditions noted are these: HT-29, 72 h.
Data set [5] concerns HCT-116. Kind of data set: Cytotoxicity against human HCT-116 cells incubated for 72 hrs by MTS assay. The format is functional, cell-based. The conditions noted are these: HCT-116, 72 h.
Data set [6] relates to RKO. The data set is described as follows: Cytotoxicity against human RKO cells incubated for 72 hrs by MTS assay. The format is functional, cell-based.
Data set [7] is described as follows: Cytotoxicity against human NCM460 cells incubated for 72 hrs by MTS assay. Type of data set: toxicity, cell-based.

Each structure is given as a SMILES string. pIC50: −log10 of the molar value.

Data on 35 compounds can be found in ChEMBL document CHEMBL5550173, “Design, synthesis and biological evaluation of indoline-maleimide conjugates as potential antitumor agents for the treatment of colorectal cancer” (Bioorg Med Chem, 2024).

In general, pIC50 refers to the negative decadic logarithm of the IC50, by convention in mol/L. Low readings indicate a high IC50, high ones a low IC50. A word on the IC50: it is the point on the concentration scale where inhibition reaches its midpoint.

With `CC(C)(C)C(=O)N1CCc2cccc(C3=CC(=O)NC3=O)c21`, the Activity in the data set with RKO [1] turned out to be 10.96%.
In the data set with HT-29 [2], `C=C(C)C(=O)N1CCc2ccccc21` yielded an Activity of 4.7%.
Take `CCN1C(=O)C=C(c2cccc3c2N(C(=O)C(C)(C)C)CC3)C1=O`: the Activity in the data set on HT-29 [2] is reported as 16.99%; with HCT-116 [3], 59.58%; with RKO [1] it was 80.91%.
Consider `CN1C(=O)C=C(c2cccc3c2N(C(=O)c2ccccc2)CC3)C1=O`, for which the results for the Activity in the data set with HT-29 [2] and with RKO [1] were 4.95% and 26.15%, respectively.
`CN1C(=O)C=C(c2cccc3c2N(C(=O)C(C)(C)C)CC3)C1=O`: the negative logarithm of the IC50 (pIC50) in the data set with HT-29 [4] was 5.26; in the data set with HCT-116 [5] it was 5.40; in the data set on RKO [6], 5.64. In addition, the Activity is 49.95% with HT-29 [2], 76.85% in the data set with HCT-116 [3] and 79.24% in the data set with RKO [1].
For `C=C(C)C(=O)n1ccc2cccc(C3=CC(=O)N(C)C3=O)c21`, the Activity in the data set with HT-29 [2] amounted to 10.28%; in the data set on HCT-116 [3], 32.89%; in the data set on RKO [1], 58.25%.
For `COc1ccc(C2=CC(=O)N(C)C2=O)c2c1CCN2C(=O)C(C)(C)C`, the results for the Activity in the data set on HT-29 [2] and in the data set with RKO [1] were 4.04% and 16.41%, respectively.
For `CC1Cc2cccc(C3=CC(=O)N(C)C3=O)c2N1C(=O)C(C)(C)C` (stereo not drawn), the results for the Activity in the data set with HT-29 [2] and in the data set on RKO [1] were 2.07% and 61.74%, respectively.
In the data set on RKO [1], `COc1ccc2c(c1C1=CC(=O)N(C)C1=O)N(C(=O)C(C)(C)C)CC2` had an Activity of 21.09%.
As to `C=CC(=O)N1CCc2cccc(C3=CC(=O)N(C)C3=O)c21`, the Activity with HT-29 [2] turned out to be 2.14%; in the data set with HCT-116 [3], 23.11%; in the data set with RKO [1] it was 78.18%.
With `CN1C(=O)C=C(c2cc(I)cc3c2N(C(=O)C(C)(C)C)CC3)C1=O`, in the data set with RKO [1], the Activity was found to be 57.09%.
The same measure, in the same setting: for `CC(C)(C)C(=O)N1CCc2cccc(C3=CC(=O)N(Cc4ccccc4)C3=O)c21` the value was 39.93%.
For `CN1C(=O)C=C(c2cccc3c2N(C(=O)c2cc4ccccc4o2)CC3)C1=O`, the results for the Activity in the data set on HCT-116 [3] and in the data set on RKO [1] were 11.36% and 46.33%, respectively.
For `CC(C)(C)C(=O)N1CCc2cccc(C3=CC(=O)N(c4ccccc4)C3=O)c21`, the Activity with RKO [1] is on record as 10.63%.
`CN1C(=O)C=C(c2c(F)ccc3c2N(C(=O)C(C)(C)C)CC3)C1=O` displayed an Activity in the data set with RKO [1] of 32.98%.
`COC(=O)CCN1C(=O)C=C(c2cccc3c2N(C(=O)C(C)(C)C)CC3)C1=O`: the Activity in the data set with HCT-116 [3] turned out to be 21.18%; in the data set with RKO [1], 59.55%.
As for `CN1C(=O)C=CC1=O`, the Activity in the data set with HT-29 [2] came out at 7.09%; with HCT-116 [3] it was 51.17%; with RKO [1] it was 33.16%.
With `CCC(=O)N1CCc2cccc(C3=CC(=O)N(C)C3=O)c21`, the figures for the Activity in the data set on HCT-116 [3] and with RKO [1] were 4.19% and 80.31%, respectively.
The compound `CC(C)(C)C(=O)N1CCc2cccc(C3=CC(=O)N(C4CCCCC4)C3=O)c21` gave an Activity with RKO [1] of 38.47%.
On the same count and under the same terms, as for `CN1C(=O)C=C(c2cccc3c2N(C(=O)N2CCCCC2)CC3)C1=O`, the figure is 17.85%.
In the case of `CC(C)N1C(=O)C=C(c2cccc3c2N(C(=O)C(C)(C)C)CC3)C1=O`, the Activity in the data set with RKO [1] is listed as 19.15%.
With `CN(C)C(=O)N1CCc2cccc(C3=CC(=O)N(C)C3=O)c21`, the Activity amounted to 5.08% in the data set with HT-29 [2] and 4.75% in the data set with RKO [1].
For `CC1CN(C(=O)C(C)(C)C)c2c(C3=CC(=O)N(C)C3=O)cccc21` (stereo not drawn), in that order: 6.02% and 56.28%.
Turning to `CC(=O)c1ccc(N2C(=O)C=C(c3cccc4c3N(C(=O)C(C)(C)C)CC4)C2=O)cc1`, the Activity in the data set with HT-29 [2] is on record as 4.69%.
In turn, `CN1C(=O)C=C(c2ccc(Cl)c3c2N(C(=O)C(C)(C)C)CC3)C1=O` returned an Activity with RKO [1] of 57.87%.
In the case of `CN1C(=O)C=C(c2cc(F)cc3c2N(C(=O)C(C)(C)C)CC3)C1=O`, the results for the Activity with HT-29 [2], in the data set on HCT-116 [3] and in the data set with RKO [1] were 18.8%, 6.51% and 78.58%, respectively.
Turning to `CN1C(=O)C=C(c2cccc3c2N(C(=O)N2CCOCC2)CC3)C1=O`, the Activity with HT-29 [2] was determined as 6.82%; in the data set on RKO [1], 22.03%.
As for `Cc1cc2c(c(C3=CC(=O)N(C)C3=O)c1)N(C(=O)C(C)(C)C)CC2`, the Activity with RKO [1] is 17.49%.
For the compound `O=c1[nH]cc(F)c(=O)[nH]1` [FLUOROURACIL], the Activity in the data set on HT-29 [2] was 29.52%; in the data set on HCT-116 [3], 37.53%; in the data set on RKO [1], 52.32%. The pIC50 in the data set with HCT-116 [5] was 5.10; in the data set with RKO [6], 5.40. Moreover, the midpoint of inhibition in data set [7], the IC50 at 72 h, lay at 7.95 µM.
In turn, `CN1C(=O)C=C(c2cccc3c2N(C(=O)C2CCCCC2)CC3)C1=O` displayed an Activity in the data set with RKO [1] of 65.05%.
In the case of `CN1C(=O)C=C(c2cc(C#N)cc3c2N(C(=O)C(C)(C)C)CC3)C1=O`, the Activity in the data set on HT-29 [2] stood at 4.68%; in the data set on RKO [1] it was 50.21%.
For `CC(=O)N1CCc2cccc(C3=CC(=O)N(C)C3=O)c21`, the Activity came out at 6.8% in the data set with HT-29 [2] and 48.13% in the data set on RKO [1].
In the case of `CN1C(=O)C=C(c2cccc3c2N(C(=O)C2CC2)CC3)C1=O`, the pIC50 is 5.29 with HT-29 [4], 5.46 in the data set on HCT-116 [5] and 5.67 with RKO [6]. The Activity with HT-29 [2] worked out at 43.87%; in the data set with HCT-116 [3], 76.22%; in the data set with RKO [1], 88.42%.
As to `CCc1ccc(N2C(=O)C=C(c3cccc4c3N(C(=O)C(C)(C)C)CC4)C2=O)cc1`, the results for the Activity in the data set with HT-29 [2], with HCT-116 [3] and with RKO [1] were 7.09%, 10.96% and 7.21%, respectively.
In the case of `CN1C(=O)C=C(c2cc(Cl)cc3c2N(C(=O)C(C)(C)C)CC3)C1=O`, the Activity in the data set with RKO [1] is recorded as 15.17%.
